According to patent US20030105595A1, “Chi square tests for gene expression” (priority 2001, published 2003):

Assays:
Experiment in all cases: multi-sample expression analysis, band intensity
Assay type in all cases: in vivo
Details in all cases: Pooled
[1] = system: band b1i0_51.7
Description: (§1) To practice the invention, one skilled in the art obtains a source of biological samples, as well as expression information about the biological samples, i.e., expression information relative to one or more genes or polypeptides encoded therein. Data is collected for a particular phenotype appearing within a given population under study, whereby expression of that phenotype is to be determined within the biological sample under study. The phenotype is correlated to a specific genotype, which is then represented as a band with a given intentity, thus indicative of gene expression levels, and is then compared to control samples. Alternatively, the response of a gene to dosage with one or more drugs is determined by band intensity. The standard deviation from the mean (StdDev) is calculated for the control samples, and is fit to functional form in the following equation: […]
(§2) A multi-sample expression analysis was run using the program described in Example 1. For each drug run, only runs for genes producing bands with a p-value<10^−5 in at least 2 of the following 3 comparisons were selected: low dose versus vehicle, high dose versus vehicle and low dose versus high dose. […] Since clusters found using all 13K bands included some of the best 2K bands, it was concluded that no essential signal was lost (see FIGS. 3 and 4). […] A comparison using the same analytic tests on only the best 2K bands. It can be seen that the Chi Square metric provides a better distinction between low and high doses than the correlation metric, which is not able to distinguish between the low dose and the high dose (see FIG. 6). The low-dose/high dose statistical variation is more pronounced when only the best 2K bands are selected.

[2] = system: band b1i0_53.0
Description: as §1, §2

[3] = system: band b1i0_54.5
Description: as §1, §2

[4] = system: band b1i0_57.4
Description: as §1, §2

[5] = system: band b1i0_60.7
Description: as §1, §2

[6] = system: band b1i0_62.5
Description: as §1, §2

[7] = system: band b1i0_63.7
Description: as §1, §2

[8] = system: band b1i0_69.4
Description: as §1, §2

Substance: Dichlorobenzene
- band intensity b1i0_51.7 ([1]; High dose, 1d): 27.84
- band intensity b1i0_51.7 ([1]; High dose, 3d): 10.75
- band intensity b1i0_51.7 ([1]; High dose, 7d): 16.63
- band intensity b1i0_51.7 ([1]; High dose, 14d): 21.77
- band intensity b1i0_51.7 ([1]; Low dose, 1d): 28.93
- band intensity b1i0_51.7 ([1]; Low dose, 3d): 26.06
- band intensity b1i0_51.7 ([1]; Low dose, 7d): 16.57
- band intensity b1i0_51.7 ([1]; Low dose, 14d): 23.43
- band intensity b1i0_53.0 ([2]; High dose, 1d): 103.4
- band intensity b1i0_53.0 ([2]; High dose, 3d): 48.52
- band intensity b1i0_53.0 ([2]; High dose, 7d): 99.66
- band intensity b1i0_53.0 ([2]; High dose, 14d): 95.42
- band intensity b1i0_53.0 ([2]; Low dose, 1d): 127.1
- band intensity b1i0_53.0 ([2]; Low dose, 3d): 71.53
- band intensity b1i0_53.0 ([2]; Low dose, 7d): 113.8
- band intensity b1i0_53.0 ([2]; Low dose, 14d): 116.4
- band intensity b1i0_54.5 ([3]; High dose, 1d): 91.99
- band intensity b1i0_54.5 ([3]; High dose, 3d): 89.82
- band intensity b1i0_54.5 ([3]; High dose, 7d): 80.92
- band intensity b1i0_54.5 ([3]; High dose, 14d): 84.91
- band intensity b1i0_54.5 ([3]; Low dose, 1d): 88.39
- band intensity b1i0_54.5 ([3]; Low dose, 3d): 128.4
- band intensity b1i0_54.5 ([3]; Low dose, 7d): 88.11
- band intensity b1i0_54.5 ([3]; Low dose, 14d): 101.4
- band intensity b1i0_57.4 ([4]; High dose, 1d): 1260
- band intensity b1i0_57.4 ([4]; High dose, 3d): 1064
- band intensity b1i0_57.4 ([4]; High dose, 7d): 1287
- band intensity b1i0_57.4 ([4]; High dose, 14d): 1142
- band intensity b1i0_57.4 ([4]; Low dose, 1d): 1301
- band intensity b1i0_57.4 ([4]; Low dose, 3d): 1352
- band intensity b1i0_57.4 ([4]; Low dose, 7d): 1298
- band intensity b1i0_57.4 ([4]; Low dose, 14d): 1338
- band intensity b1i0_60.7 ([5]; High dose, 1d): 79.94
- band intensity b1i0_60.7 ([5]; High dose, 3d): 62.13
- band intensity b1i0_60.7 ([5]; High dose, 7d): 77.87
- band intensity b1i0_60.7 ([5]; High dose, 14d): 82.42
- band intensity b1i0_60.7 ([5]; Low dose, 1d): 95.98
- band intensity b1i0_60.7 ([5]; Low dose, 3d): 58.61
- band intensity b1i0_60.7 ([5]; Low dose, 7d): 74.81
- band intensity b1i0_60.7 ([5]; Low dose, 14d): 94.46
- band intensity b1i0_62.5 ([6]; High dose, 1d): 68.45
- band intensity b1i0_62.5 ([6]; High dose, 3d): 97.82
- band intensity b1i0_62.5 ([6]; High dose, 7d): 76.86
- band intensity b1i0_62.5 ([6]; High dose, 14d): 64.49
- band intensity b1i0_62.5 ([6]; Low dose, 1d): 73.54
- band intensity b1i0_62.5 ([6]; Low dose, 3d): 76.31
- band intensity b1i0_62.5 ([6]; Low dose, 7d): 88.91
- band intensity b1i0_62.5 ([6]; Low dose, 14d): 68.64
- band intensity b1i0_63.7 ([7]; High dose, 1d): 129
- band intensity b1i0_63.7 ([7]; High dose, 3d): 5.698
- band intensity b1i0_63.7 ([7]; High dose, 7d): 224.3
- band intensity b1i0_63.7 ([7]; High dose, 14d): 157.7
- band intensity b1i0_63.7 ([7]; Low dose, 1d): 166.2
- band intensity b1i0_63.7 ([7]; Low dose, 3d): 24.94
- band intensity b1i0_63.7 ([7]; Low dose, 7d): 258.8
- band intensity b1i0_63.7 ([7]; Low dose, 14d): 152.1
- band intensity b1i0_69.4 ([8]; High dose, 1d): 295.5
- band intensity b1i0_69.4 ([8]; High dose, 3d): 393.2
- band intensity b1i0_69.4 ([8]; High dose, 7d): 261.7
- band intensity b1i0_69.4 ([8]; High dose, 14d): 311.3
- band intensity b1i0_69.4 ([8]; Low dose, 1d): 130.6
- band intensity b1i0_69.4 ([8]; Low dose, 3d): 334.6
- band intensity b1i0_69.4 ([8]; Low dose, 7d): 304.3
- band intensity b1i0_69.4 ([8]; Low dose, 14d): 333.2913
